The results in this text go back to patent US20040006236A1, “Diaminopropionic acid derivatives” (priority 1999, published 2004).

The target of assay [1] is T1, LFA-1 binding to immobilized ICAM-1 (Homo sapiens, UniProt P05107+P20701).
T1 construct: made in house; host or cells: transfected 293 cells (LFA-1)
The assay can be described thus: LFA-1/ICAM-1 protein-protein assay (solid-phase ELISA). Particulars: read-out: LFA-1/ICAM-1 Protein-Protein Assay IC50. In a few lines:
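Human 5dICAM-Ig (ICAM-1 extracellular domain–IgG Fc) coated on plates; membrane-bound LFA-1 from transfected 293 cells (280 ng/mL) added with compound in Mn2+-containing HEPES buffer pH 7.2, 2 h at 37° C. Bound LFA-1 detected via anti-β2 antibody and HRP/TMB at 450 nm; IC50s determined.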
Background: ELISA stands for enzyme-linked immunosorbent assay.

The test system of assay [2] is cell-surface Mac-1 adhesion to immobilized fibrinogen (HL-60 cells). The assay can be described thus: Mac-1/Fibrinogen cell-based screening assay. On the set-up: species or system human. The settings on record: Homo sapiens, HL-60, HL-60 cells; read-out: Mac-1/Fgn Cell based Assay IC50. In outline: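 Wells coated with fibrinogen and blocked with PVP. Labeled HL-60 cells (2×10^6 cells/mL in RPMI/0.05% BSA/0.2 mM MnCl2) preincubated with DMSO-diluted compounds for 10 min at 37° C, then left to adhere 30 min at 37° C/5% CO2. Unbound cells washed off with TBS.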

T1 sequence (P20701 26-1170): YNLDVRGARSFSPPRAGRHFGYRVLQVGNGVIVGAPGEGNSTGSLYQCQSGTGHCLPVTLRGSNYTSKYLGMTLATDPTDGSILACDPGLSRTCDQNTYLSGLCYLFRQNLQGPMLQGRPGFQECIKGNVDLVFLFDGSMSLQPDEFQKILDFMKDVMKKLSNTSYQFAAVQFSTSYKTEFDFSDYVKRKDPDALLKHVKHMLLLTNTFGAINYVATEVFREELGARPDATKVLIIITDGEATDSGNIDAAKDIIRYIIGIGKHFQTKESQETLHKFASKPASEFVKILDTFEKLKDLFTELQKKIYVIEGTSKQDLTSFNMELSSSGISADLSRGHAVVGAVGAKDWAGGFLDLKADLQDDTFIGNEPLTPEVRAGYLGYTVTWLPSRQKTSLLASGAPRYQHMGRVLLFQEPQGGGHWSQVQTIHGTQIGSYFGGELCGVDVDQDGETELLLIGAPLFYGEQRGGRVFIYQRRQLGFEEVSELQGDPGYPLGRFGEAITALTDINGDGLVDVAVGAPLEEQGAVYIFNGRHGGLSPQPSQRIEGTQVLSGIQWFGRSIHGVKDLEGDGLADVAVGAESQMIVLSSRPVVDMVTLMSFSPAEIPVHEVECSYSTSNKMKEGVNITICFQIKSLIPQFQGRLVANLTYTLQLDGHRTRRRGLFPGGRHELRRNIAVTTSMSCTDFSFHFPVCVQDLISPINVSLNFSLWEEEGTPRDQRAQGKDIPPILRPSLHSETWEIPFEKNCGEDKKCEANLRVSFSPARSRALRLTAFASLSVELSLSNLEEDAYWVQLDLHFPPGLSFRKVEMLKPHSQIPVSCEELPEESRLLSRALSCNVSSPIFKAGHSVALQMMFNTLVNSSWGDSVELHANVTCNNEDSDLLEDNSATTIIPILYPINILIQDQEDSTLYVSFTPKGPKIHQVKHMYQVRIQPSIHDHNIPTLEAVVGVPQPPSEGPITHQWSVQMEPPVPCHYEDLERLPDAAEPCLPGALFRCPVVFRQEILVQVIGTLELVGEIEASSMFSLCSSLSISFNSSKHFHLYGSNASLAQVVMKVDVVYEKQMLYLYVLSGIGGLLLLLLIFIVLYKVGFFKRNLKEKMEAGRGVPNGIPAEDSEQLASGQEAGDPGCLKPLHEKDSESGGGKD
T1 sequence (P05107 23-769): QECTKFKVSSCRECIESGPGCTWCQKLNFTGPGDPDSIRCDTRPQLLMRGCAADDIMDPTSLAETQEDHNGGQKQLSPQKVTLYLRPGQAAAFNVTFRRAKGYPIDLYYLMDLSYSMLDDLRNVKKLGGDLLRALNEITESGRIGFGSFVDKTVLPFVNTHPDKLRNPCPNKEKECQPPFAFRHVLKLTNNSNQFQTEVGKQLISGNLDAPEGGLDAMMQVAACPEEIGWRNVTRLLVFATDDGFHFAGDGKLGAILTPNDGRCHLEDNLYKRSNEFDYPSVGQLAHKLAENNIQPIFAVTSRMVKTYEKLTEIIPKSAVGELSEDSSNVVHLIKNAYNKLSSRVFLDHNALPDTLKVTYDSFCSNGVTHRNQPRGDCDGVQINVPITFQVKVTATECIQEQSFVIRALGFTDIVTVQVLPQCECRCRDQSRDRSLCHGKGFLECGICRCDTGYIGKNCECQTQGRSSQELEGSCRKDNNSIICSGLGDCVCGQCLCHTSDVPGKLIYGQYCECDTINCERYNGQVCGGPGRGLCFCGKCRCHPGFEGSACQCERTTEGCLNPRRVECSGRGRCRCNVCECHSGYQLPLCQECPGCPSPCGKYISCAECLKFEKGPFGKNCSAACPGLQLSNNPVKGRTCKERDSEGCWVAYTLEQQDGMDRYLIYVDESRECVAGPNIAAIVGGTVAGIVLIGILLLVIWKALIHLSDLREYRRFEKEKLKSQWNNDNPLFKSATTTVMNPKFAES

Consider `O=C(CC1CCCC1)NC[C@H](NC(=O)c1ccc(C(=O)NCc2cccc(O)c2)cc1Cl)C(=O)O` [Example 77], for which the results for the IC50 in assay [1] and in assay [2] were 2.1 nM and 312 nM, respectively.
